Experimental data reported in patent US12714715B2, “Agent for treating myopia, preventing myopia and/or suppressing myopia progression” (SANTEN PHARMACEUTICAL CO., LTD., priority 2020, dated 2026).

Tests used:
guinea pig myopia model = test: Test on suppression of myopia progression (axial length elongation and refractive error) in guinea pig myopia model; format: in vivo, guinea pig (Slc:Hartley); settings: for Difference of axial lengths / Difference of refraction: 10 μL topical to goggled right eye once daily 14 days, right eye − left eye, average n=6; for Difference of axial lengths / Difference of refraction / Suppression rate of axial length elongation / Suppression rate of refractive error: day 14; for Suppression rate of axial length elongation / Suppression rate of refractive error: vs vehicle control group
Method: According to the following procedures, the effect of AFDX0250 on the suppression of myopia progression (the axial length elongation and the refractive error) was evaluated.
AFDX0250 was dissolved in purified water with a buffering agent and a tonicity agent to prepare 0.5% AFDX0250 solution. 1 mol/L sodium hydroxide reagent solution or dilute hydrochloric acid was added to the solution to adjust the pH thereof to neutral. Also, a buffering agent and a tonicity agent were dissolved in purified water to prepare a neutral vehicle. 9.8 mL of the vehicle was mixed with 0.2 mL of 0.5% AFDX0250 solution and stirred to prepare 0.01% AFDX0250 solution. 3 mL, 4 mL and 4.5 mL of the vehicles were mixed with 2 mL, 1 mL and 0.5 mL of 0.01% AFDX0250 solutions, respectively, and stirred to prepare 0.004%, 0.002% and 0.001% AFDX0250 solutions.
A test tube with a diameter of 18 mm was cut off at the level of 10 mm from the bottom, and the cut-off bottom part was glued to one side of Velcro tape (about 20 mm square) with a hole of an appropriate diameter in the center with an adhesive agent to prepare a lens (goggle). 3-week-old guinea pigs (Slc:Hartley) (n=30) were obtained, and the prepared goggle was covered to the right eye of each guinea pig with an adhesive agent to induce myopia to the guinea pigs. The left eye thereof without goggle was used as control.
The […] group, 0.004% AFDX0250 solution administration group, […] group (control group) (n=6 per group). In the AFDX0250 solution administration groups, 10 μL of the AFDX0250 solution in each concentration was topically administered to the right eye of each guinea pig once daily for 14 days from the day when the right eye was covered with the goggle (day 0) to day 13. In the control group, 10 μL of the vehicle was topically administered to the right eye of each guinea pig once daily for 14 days from the day when the right eye was covered with the goggle (day 0) to day 13. In the all groups, 10 μL of the vehicle was topically administered to the left eye at the same frequency of administration as that of each group daily for 14 days from day 0 to day 13. The guinea pigs were reared under a normal rearing condition.
On day 14 from the myopia induction, the axial lengths of right and left eyeballs were measured with an ultrasound axial length measurement device ECHOSCAN US-500 (A-scan) (NIDEK CO., LTD.), and the refractions were measured with the auto refractometer AR-1a (NIDEK CO., LTD.). The difference of axial lengths and the suppression rate of the axial length elongation as well as the difference of refraction and the suppression rate of the refractive error were calculated according to the following formulae. The calculation was performed in Microsoft Excel. Difference of axial lengths (mm)=Axial length of right eye (mm)−Axial length of left eye (mm) Suppression rate of axial length elongation (%)=(1−Difference of axial lengths in AFDX0250 solution administration group/Difference of axial lengths in control group)×100 (Formula) Difference of refraction (D)=Refraction of right eye (D)−Refraction of left eye (D) Suppression rate of refractive error (%)=(1−Difference of refraction in AFDX0250 solution administration group/Difference of refraction in control group)×100 (Formula) (Test Result)
AFDX0250 was dissolved in purified water with a buffering agent and a tonicity agent to prepare 0.5% AFDX0250 solution. 1 mol/L sodium hydroxide reagent solution or dilute hydrochloric acid was added to the solution to adjust the pH thereof to neutral. Also, a buffering agent and a tonicity agent were dissolved in purified water to prepare a neutral vehicle. 4 mL and 4.8 mL of vehicles were mixed with 1 mL and 0.2 mL of 0.5% AFDX0250 solutions, respectively, and stirred to prepare 0.1% and 0.02% of AFDX0250 solutions. Also, 4 mL of the vehicle was mixed with 1 mL of 0.02% AFDX0250 solution and stirred to prepare 0.004% AFDX0250 solution. […]

guinea pigs = test: Evaluation of mydriatic action (pupil diameter, pupillary light reflex) after repeated topical administration to one eye; format: in vivo, guinea pig; settings: guinea pig, in vivo
Method: An atropine solution was repeatedly topically administered to one eye of a guinea pig to evaluate the effect of the solution on mydriasis.
Atropine sulfate hydrate and glycerin were dissolved in water for injection to prepare 0.001%, 0.0003% and 0.0001% atropine solutions without adjusting the pH.
Each of the prepared solutions was topically administered to the left eye of guinea pigs (the left eyes of 3 guinea pigs for each solution) in a volume of 10 μL once daily for 5 days. The pupil diameter of each guinea pig was measured before the administration on day 5 as well as 1, 2 and 4 hours after the administration to observe the pupillary light reflex. The measured pupil diameters of each guinea pig at each measurement time were averaged to obtain the average value. The obtained average value was defined as the average pupil diameter. Among each average pupil diameter at each measurement time, the longest diameter was defined as the maximum pupil diameter.

[1] = Comparative Example 1, 0.004% solution
[2] = Comparative Example 1, 0.004% solution, topical once daily 14 days
[3] = Comparative Example 1, 0.02% solution
[4] = Comparative Example 1, 0.02% solution, topical once daily 14 days
[5] = Comparative Example 1, 0.1% solution
[6] = Comparative Example 1, 0.1% solution, topical once daily 14 days
[7] = Comparative Example 1, 0.5% solution
[8] = Comparative Example 1, 0.5% solution, topical once daily 14 days
[9] = Comparative Example 2, 0.004% solution
[10] = Comparative Example 2, 0.004% solution, topical once daily 14 days
[11] = Comparative Example 2, 0.01% solution
[12] = Comparative Example 2, 0.01% solution, topical once daily 14 days
[13] = Comparative Example 2, 0.02% solution
[14] = Comparative Example 2, 0.02% solution, topical once daily 14 days
[15] = Comparative Example 2, 0.1% solution
[16] = Comparative Example 2, 0.1% solution, topical once daily 14 days

CCN(CC)CC1CCCCN1CC(=O)N1c2ccccc2C(=O)Nc2cccnc21 (stereo not drawn) [AFDX0116, 11-[2-[2-[(diethylamino)methyl]-1-piperidinyl]acetyl]-5,11-dihydro-6H-pyrido[2,3-b][1,4]benzodiazepin-6-one]
Difference of axial lengths (guinea pig myopia model; [1]): 0.19 mm
Difference of refraction (guinea pig myopia model; [1]): −4.74 D
Suppression rate of axial length elongation (guinea pig myopia model; [2]): 21.14%
Suppression rate of refractive error (guinea pig myopia model; [2]): 45.54%
Difference of axial lengths (guinea pig myopia model; [3]): 0.09 mm
Difference of refraction (guinea pig myopia model; [3]): −2.17 D
Suppression rate of axial length elongation (guinea pig myopia model; [4]): 62.95%
Suppression rate of refractive error (guinea pig myopia model; [4]): 73.10%
Difference of axial lengths (guinea pig myopia model; [5]): 0.09 mm
Difference of refraction (guinea pig myopia model; [5]): −1.90 D
Suppression rate of axial length elongation (guinea pig myopia model; [6]): 63.86%
Suppression rate of refractive error (guinea pig myopia model; [6]): 73.17%
Difference of axial lengths (guinea pig myopia model; [7]): 0.03 mm
Difference of refraction (guinea pig myopia model; [7]): −2.10 D
Suppression rate of axial length elongation (guinea pig myopia model; [8]): 87.73%
Suppression rate of refractive error (guinea pig myopia model; [8]): 75.86%
Difference of axial lengths (guinea pig myopia model; [9]): 0.12 mm
Difference of refraction (guinea pig myopia model; [9]): −6.59 D
Suppression rate of axial length elongation (guinea pig myopia model; [10]): 22.52%
Suppression rate of refractive error (guinea pig myopia model; [10]): 9.96%
Difference of axial lengths (guinea pig myopia model; [11]): 0.12 mm
Difference of refraction (guinea pig myopia model; [11]): −3.61 D
Suppression rate of axial length elongation (guinea pig myopia model; [12]): 21.44%
Suppression rate of refractive error (guinea pig myopia model; [12]): 50.71%
Difference of axial lengths (guinea pig myopia model; [13]): 0.05 mm
Difference of refraction (guinea pig myopia model; [13]): −2.52 D
Suppression rate of axial length elongation (guinea pig myopia model; [14]): 69.73%
Suppression rate of refractive error (guinea pig myopia model; [14]): 65.61%
Difference of axial lengths (guinea pig myopia model; [15]): 0.05 mm
Difference of refraction (guinea pig myopia model; [15]): −2.42 D
Suppression rate of axial length elongation (guinea pig myopia model; [16]): 68.65%
Suppression rate of refractive error (guinea pig myopia model; [16]): 66.87%
Concentration showing the anti-myopic effect (comparison in words) (guinea pig myopia model; Comparative Examples 1 and 2 compared with Examples 1 and 2): higher than that of AFDX0250
Effect on the axial length elongation and the refractive error (summary in words) (guinea pig myopia model; summary of Examples 1 and 2 (AFDX0250) and Comparative Examples 1 and 2 (AFDX0116), topical once daily 14 days): suppressed the axial length elongation and the refractive error
Mydriatic action (pupil diameter and pupillary light reflex, in words) (guinea pigs): increased the pupil diameter and decreased the pupillary light reflex
Measurement time of maximum pupil diameter (guinea pigs; 5 days): 2 h
